From patent publication US8242157B2, “Benzimidazole derivatives useful as TRPM8 channel modulators” (Janssen Pharmaceutica NV, priority 2009, dated 2012) come the findings set out here.

Where “and” joins values, the source holds several entries; their conditions need not be identical. Identical values can stand only once. Like-named read-outs stand apart in the source and are kept apart here.

The target of experiment [1] is T1, canine TRPM8 (Canis lupus familiaris, UniProt Q1A7N1).
T1 construct: expressed in transfected cells
As to the kind of experiment: In Vitro Canine TRPM8 Functional Assay (icilin-induced intracellular Ca2+, FLIPR/FDSS). It counts as cell-based. The conditions noted are these: for % Inh @ 0.2 μM: 0.2 μM compound; for IC50: icilin at approx. 80% maximal response, eight-point concentration-response. The protocol:
The functional activity of representative compounds of the formula (I) of the present invention was quantified by measuring changes in intracellular calcium concentration using a Ca^2+-sensitive fluorescent dye. The changes in fluorescent signal were monitored by a fluorescence plate reader, either a FLIPR™ (Molecular Devices) or FDSS (Hamamatsu).
HEK293 cells stably expressing canine TRPM8 were routinely grown as monolayers in Dulbecco's minimum essential medium supplemented with 10% FBS, 2 mM L-glutamine, 100 units/mL penicillin, 100 ug/mL streptomycin and 400 μg/mL G418. Cells were maintained in 5% CO2 at 37° C. At 24 hr prior to assay, cells were seeded in black wall, clear-base poly-D-lysine coated 384-well plates (BD Biosciences, NJ, USA) at a density of 5,000 cells per well in culture medium and grown overnight in 5% CO2 at 37° C. On assay day, growth media was removed, and cells were loaded with Calcium 3 Dye (Molecular Devices) for 35 min at 37° C., under 5% CO2 and then incubated for 25 min at room temperature and atmosphere. Subsequently, cells were tested for agonist-induced increases in intracellular Ca^2+ levels using FLIPR™ or FDSS. Cells were treated with compounds of the formula (I) at varying concentrations and intracellular […] was measured for 5 min prior to the addition of icilin to all wells to achieve a final concentration that produces approximately an 80% maximal response.
Basal FI was subtracted prior to normalizing data to percent of maximal response. Curves were generated using the average of quadruplicate wells for each data point using nonlinear regression of either sigmoidal dose response or sigmoidal dose response (variable slope). Finally, the EC50 and IC50 values were calculated with the best-fit curve determined by GraphPad Prism

The test system of experiment [2] is icilin-induced "wet-dog" shakes. In words: Inhibition of icilin-induced "wet-dog" shakes in rats. In kind it is in vivo. The conditions noted are these: male Sprague Dawley rats; 10 mg/kg p.o., 60 min pre-icilin; vehicle 10% Solutol (0.5% HPMC for 47); [1-(test compound WDS count/vehicle WDS count)]x100. The protocol: Male Sprague Dawley rats ([…], Charles River Labs, n=6-9/treatment) were used to evaluate the ability of test compounds to block icilin-induced “wet-dog” shakes (WDS). The test compound was administered in an appropriate vehicle, such as hydroxypropyl-β-cyclodextrin (HP-β-CD), methocellulose, 10% Solutol, H2O or the like, by the appropriate route (e.g., i.p. or p.o.), 30-60 min before icilin. Icilin was then administered in PEG-400 or 10% solutol/H2O, at 1.0 or 3.0 mg/kg, i.p. and spontaneous “wet-dog” shakes were counted 10-20 min post-icilin.
Representative compounds of the present invention were tested at 10 mg/kg p.o. and 60 min pre-incilin, according to the procedure as described above. Results, as listed in Table 7 below, are presented as a percent inhibition of shakes, which was calculated as [1−(test compound WDS count/vehicle WDS count)]×100.

The mark [3] stands for this setting: HEK293 cells stably expressing canine TRPM8, icilin activation, 0.2 µM.
Where [4] appears, read: HEK293, 0.2 μM compound, HEK293 cells stably expressing canine TRPM8, icilin activation, read-out: % Inh @ 0.2 μM.
[5] abbreviates: HEK293 cells stably expressing canine TRPM8, read-out: IC50.

T1 sequence (Q1A7N1 1-1104): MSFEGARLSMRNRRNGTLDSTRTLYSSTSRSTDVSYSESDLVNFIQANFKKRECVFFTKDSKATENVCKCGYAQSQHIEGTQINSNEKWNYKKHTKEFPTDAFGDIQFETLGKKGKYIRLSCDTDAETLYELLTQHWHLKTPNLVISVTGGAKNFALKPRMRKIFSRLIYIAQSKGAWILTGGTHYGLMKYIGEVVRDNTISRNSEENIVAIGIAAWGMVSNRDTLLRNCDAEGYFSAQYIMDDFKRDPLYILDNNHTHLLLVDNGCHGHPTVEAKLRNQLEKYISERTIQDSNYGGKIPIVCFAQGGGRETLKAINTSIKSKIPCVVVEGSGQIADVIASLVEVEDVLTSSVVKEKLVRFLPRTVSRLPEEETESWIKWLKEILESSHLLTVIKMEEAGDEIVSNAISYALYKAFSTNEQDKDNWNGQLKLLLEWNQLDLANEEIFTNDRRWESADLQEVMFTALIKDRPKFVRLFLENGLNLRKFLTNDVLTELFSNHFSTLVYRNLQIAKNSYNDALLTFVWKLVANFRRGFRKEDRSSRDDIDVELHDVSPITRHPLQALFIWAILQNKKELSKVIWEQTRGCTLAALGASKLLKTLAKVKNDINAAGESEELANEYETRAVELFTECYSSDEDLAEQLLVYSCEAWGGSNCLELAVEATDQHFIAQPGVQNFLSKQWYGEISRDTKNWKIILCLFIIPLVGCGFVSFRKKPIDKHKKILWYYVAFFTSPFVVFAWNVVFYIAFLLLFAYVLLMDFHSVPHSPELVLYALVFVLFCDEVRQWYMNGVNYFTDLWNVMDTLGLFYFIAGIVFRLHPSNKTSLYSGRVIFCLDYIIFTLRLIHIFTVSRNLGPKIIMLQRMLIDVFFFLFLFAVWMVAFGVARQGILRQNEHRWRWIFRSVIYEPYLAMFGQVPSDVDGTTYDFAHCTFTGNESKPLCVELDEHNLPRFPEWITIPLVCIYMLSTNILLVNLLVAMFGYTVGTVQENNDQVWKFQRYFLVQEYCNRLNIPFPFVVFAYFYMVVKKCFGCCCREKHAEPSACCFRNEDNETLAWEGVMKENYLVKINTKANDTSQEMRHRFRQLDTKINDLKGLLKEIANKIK

With `Cn1c(N(Cc2ccc(OC(F)(F)F)cc2)S(=O)(=O)c2ccccc2)nc2ccccc21` [Compound #6], the “% Inh @ 0.2 μM” value in experiment [1] (setting [3]) stood at 100%. Moreover, the inhibition at 0.2 µM in experiment [1] (setting [4]) came out at 101%. Further, the IC50 in experiment [1] (setting [5]) was 1 nM and 2 nM. Besides, the “% Inhibition of shakes” value in experiment [2] was 20.2%.

In the case of `Cn1c(N(Cc2ccc(F)c(C(F)(F)F)c2)S(=O)(=O)c2ccccc2)nc2ccccc21` [Compound #15, N-(4-Fluoro-3-trifluoromethyl-benzyl)-N-(1-methyl-1H-benzimidazol-2-yl)-benzenesulfonamide], the “% Inh @ 0.2 μM” value in experiment [1] (setting [3]) worked out at 98%. Also, the inhibition at 0.2 µM in experiment [1] (setting [4]) is 102%. The IC50 in experiment [1] (setting [5]) was 1 nM and 4 nM. Besides, the “% Inhibition of shakes” value in experiment [2] was 27.7%.

For the compound `CCn1c(N(Cc2ccc(C(F)(F)F)cc2)S(=O)(=O)c2ccccc2)nc2cc(F)ccc21` [Compound #47, N-(1-Ethyl-5-fluoro-1H-benzimidazol-2-yl)-N-(4-trifluoromethyl-benzyl)-benzenesulfonamide], the inhibition at 0.2 µM in experiment [1] (HEK293, read-out: % Inh @ 0.2 μM) was 100%. In experiment [1] (IC50, HEK293 cells stably expressing canine TRPM8), this compound yielded an IC50 of 6 nM. Also, the “% Inhibition of shakes” value in experiment [2] is recorded as 36%.

Take `Cn1c(N(Cc2ccc(F)c(Cl)c2)S(=O)(=O)c2ccccc2)nc2ccccc21` [compound 20]: the inhibition at 0.2 µM in experiment [1] (setting [4]) worked out at 101%. Besides, the IC50 in experiment [1] (setting [5]) worked out at 1 nM. Moreover, in experiment [2], the “% Inhibition of shakes” value is 32.6%.

For the compound `O=S(=O)(c1ccccc1)N(Cc1ccc(C(F)(F)F)cc1)c1nc2ccccc2n1CC(F)(F)F` [compound 54], in experiment [1] (HEK293 cells stably expressing canine TRPM8, icilin activation), the “% Inh @ 0.2 μM” value is 85, 85%. In addition, in experiment [1] (setting [4]), the inhibition at 0.2 µM came out at 85%. Besides, in experiment [1] (setting [5]), the IC50 is 15 nM and 75 nM. Moreover, in experiment [2], the “% Inhibition of shakes” value amounted to 2.4%.
